Assay results as given in ChEMBL document CHEMBL1201862, “PubChem BioAssay data set” (2004).
Values belong to the compound of their own block, whether it stands above or below them. Activity calls are given as the source filed them.

Experiments:
[1] = target: T1, Cytochrome P450 1A2 (Homo sapiens, UniProt P05177);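 further: PubChem cytochrome P450 panel assay, CYP1A2 panel member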
T1 sequence (P05177 whole entry): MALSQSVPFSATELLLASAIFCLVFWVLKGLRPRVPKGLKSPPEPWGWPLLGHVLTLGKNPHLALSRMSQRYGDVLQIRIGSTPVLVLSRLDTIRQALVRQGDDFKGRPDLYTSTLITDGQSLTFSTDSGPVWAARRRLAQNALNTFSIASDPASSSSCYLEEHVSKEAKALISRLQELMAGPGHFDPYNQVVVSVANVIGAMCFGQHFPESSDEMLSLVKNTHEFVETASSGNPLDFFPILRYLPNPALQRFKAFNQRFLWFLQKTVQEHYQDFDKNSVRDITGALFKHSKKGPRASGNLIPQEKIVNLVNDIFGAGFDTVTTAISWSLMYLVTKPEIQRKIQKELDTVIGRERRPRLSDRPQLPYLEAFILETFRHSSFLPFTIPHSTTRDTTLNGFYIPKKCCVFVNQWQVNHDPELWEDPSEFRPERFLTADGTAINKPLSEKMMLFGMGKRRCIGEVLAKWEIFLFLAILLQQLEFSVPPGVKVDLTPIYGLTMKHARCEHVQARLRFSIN

[2] = target: Lysine-specific demethylase 4A (Homo sapiens, UniProt O75164); assay: JMJD2A histone demethylase inhibitors, dose response, selectivity assay for GASC-1 inhibitor project, biochemical, DELFIA europium, cherry-picked samples (AID 488840)
[3] = target: Ras and Rab interactor 1/Tyrosine-protein kinase ABL1 (Homo sapiens, UniProt P00519+Q13671); type: functional;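 further: biochemical TR-FRET dose-response test measuring inhibition of binding between Rin1 and Abl proteins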
[4] = target: SUMO E1/E2 (Homo sapiens, UniProt P63279+Q9UBE0+Q9UBT2); assay: SAR analysis of SUMOylation using HTRF in an in-Vitro dose response assay. [Related pubchem assays (depositor defined):AID2006, AID2011, AID2018, AID2069, AID2658]; type: functional
Sequence of SUMO E1/E2 (Q9UBE0 whole entry): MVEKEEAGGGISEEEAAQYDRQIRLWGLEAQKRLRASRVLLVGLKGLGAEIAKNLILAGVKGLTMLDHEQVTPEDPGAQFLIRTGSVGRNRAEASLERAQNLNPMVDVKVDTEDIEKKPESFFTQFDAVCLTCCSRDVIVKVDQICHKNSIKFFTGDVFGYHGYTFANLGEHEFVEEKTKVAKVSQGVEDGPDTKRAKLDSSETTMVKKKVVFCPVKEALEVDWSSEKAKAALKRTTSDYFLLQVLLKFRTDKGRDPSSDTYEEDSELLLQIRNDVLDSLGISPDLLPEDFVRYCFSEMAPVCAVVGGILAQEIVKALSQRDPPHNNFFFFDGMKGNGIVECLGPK
Sequence of SUMO E1/E2 (Q9UBT2 whole entry): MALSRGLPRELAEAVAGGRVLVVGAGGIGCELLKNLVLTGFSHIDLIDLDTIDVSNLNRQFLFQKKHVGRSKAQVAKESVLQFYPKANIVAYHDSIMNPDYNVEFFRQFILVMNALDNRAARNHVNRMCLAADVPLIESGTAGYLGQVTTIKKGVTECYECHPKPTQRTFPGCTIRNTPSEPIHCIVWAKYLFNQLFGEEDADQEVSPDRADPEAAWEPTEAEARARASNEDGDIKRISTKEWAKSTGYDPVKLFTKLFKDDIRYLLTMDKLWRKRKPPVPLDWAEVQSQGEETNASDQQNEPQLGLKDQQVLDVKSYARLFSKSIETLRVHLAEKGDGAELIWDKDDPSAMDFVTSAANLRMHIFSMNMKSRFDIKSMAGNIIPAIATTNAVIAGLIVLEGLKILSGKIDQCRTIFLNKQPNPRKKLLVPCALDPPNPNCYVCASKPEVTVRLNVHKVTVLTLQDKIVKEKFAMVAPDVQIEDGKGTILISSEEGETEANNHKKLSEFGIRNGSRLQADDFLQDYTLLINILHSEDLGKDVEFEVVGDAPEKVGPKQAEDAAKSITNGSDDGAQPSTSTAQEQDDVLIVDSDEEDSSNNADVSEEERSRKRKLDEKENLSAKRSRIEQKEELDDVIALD
Sequence of SUMO E1/E2 (P63279 whole entry): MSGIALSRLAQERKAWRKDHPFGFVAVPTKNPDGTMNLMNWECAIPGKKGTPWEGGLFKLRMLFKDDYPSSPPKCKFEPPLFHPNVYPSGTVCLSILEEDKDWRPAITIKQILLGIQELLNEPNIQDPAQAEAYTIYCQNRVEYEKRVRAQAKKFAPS

[5] = target: T2, Voltage-gated N-type calcium channel alpha-1B subunit/Amyloid beta A4 precursor protein-binding family A member 1 (Homo sapiens, UniProt Q00975+Q02410); assay: disruptors of Mint-PDZ/N-type channel peptide interaction – biochemical, HTRF, set 2, SAR follow-up (AID 434980); type: functional
T2 sequence (Q00975 whole entry): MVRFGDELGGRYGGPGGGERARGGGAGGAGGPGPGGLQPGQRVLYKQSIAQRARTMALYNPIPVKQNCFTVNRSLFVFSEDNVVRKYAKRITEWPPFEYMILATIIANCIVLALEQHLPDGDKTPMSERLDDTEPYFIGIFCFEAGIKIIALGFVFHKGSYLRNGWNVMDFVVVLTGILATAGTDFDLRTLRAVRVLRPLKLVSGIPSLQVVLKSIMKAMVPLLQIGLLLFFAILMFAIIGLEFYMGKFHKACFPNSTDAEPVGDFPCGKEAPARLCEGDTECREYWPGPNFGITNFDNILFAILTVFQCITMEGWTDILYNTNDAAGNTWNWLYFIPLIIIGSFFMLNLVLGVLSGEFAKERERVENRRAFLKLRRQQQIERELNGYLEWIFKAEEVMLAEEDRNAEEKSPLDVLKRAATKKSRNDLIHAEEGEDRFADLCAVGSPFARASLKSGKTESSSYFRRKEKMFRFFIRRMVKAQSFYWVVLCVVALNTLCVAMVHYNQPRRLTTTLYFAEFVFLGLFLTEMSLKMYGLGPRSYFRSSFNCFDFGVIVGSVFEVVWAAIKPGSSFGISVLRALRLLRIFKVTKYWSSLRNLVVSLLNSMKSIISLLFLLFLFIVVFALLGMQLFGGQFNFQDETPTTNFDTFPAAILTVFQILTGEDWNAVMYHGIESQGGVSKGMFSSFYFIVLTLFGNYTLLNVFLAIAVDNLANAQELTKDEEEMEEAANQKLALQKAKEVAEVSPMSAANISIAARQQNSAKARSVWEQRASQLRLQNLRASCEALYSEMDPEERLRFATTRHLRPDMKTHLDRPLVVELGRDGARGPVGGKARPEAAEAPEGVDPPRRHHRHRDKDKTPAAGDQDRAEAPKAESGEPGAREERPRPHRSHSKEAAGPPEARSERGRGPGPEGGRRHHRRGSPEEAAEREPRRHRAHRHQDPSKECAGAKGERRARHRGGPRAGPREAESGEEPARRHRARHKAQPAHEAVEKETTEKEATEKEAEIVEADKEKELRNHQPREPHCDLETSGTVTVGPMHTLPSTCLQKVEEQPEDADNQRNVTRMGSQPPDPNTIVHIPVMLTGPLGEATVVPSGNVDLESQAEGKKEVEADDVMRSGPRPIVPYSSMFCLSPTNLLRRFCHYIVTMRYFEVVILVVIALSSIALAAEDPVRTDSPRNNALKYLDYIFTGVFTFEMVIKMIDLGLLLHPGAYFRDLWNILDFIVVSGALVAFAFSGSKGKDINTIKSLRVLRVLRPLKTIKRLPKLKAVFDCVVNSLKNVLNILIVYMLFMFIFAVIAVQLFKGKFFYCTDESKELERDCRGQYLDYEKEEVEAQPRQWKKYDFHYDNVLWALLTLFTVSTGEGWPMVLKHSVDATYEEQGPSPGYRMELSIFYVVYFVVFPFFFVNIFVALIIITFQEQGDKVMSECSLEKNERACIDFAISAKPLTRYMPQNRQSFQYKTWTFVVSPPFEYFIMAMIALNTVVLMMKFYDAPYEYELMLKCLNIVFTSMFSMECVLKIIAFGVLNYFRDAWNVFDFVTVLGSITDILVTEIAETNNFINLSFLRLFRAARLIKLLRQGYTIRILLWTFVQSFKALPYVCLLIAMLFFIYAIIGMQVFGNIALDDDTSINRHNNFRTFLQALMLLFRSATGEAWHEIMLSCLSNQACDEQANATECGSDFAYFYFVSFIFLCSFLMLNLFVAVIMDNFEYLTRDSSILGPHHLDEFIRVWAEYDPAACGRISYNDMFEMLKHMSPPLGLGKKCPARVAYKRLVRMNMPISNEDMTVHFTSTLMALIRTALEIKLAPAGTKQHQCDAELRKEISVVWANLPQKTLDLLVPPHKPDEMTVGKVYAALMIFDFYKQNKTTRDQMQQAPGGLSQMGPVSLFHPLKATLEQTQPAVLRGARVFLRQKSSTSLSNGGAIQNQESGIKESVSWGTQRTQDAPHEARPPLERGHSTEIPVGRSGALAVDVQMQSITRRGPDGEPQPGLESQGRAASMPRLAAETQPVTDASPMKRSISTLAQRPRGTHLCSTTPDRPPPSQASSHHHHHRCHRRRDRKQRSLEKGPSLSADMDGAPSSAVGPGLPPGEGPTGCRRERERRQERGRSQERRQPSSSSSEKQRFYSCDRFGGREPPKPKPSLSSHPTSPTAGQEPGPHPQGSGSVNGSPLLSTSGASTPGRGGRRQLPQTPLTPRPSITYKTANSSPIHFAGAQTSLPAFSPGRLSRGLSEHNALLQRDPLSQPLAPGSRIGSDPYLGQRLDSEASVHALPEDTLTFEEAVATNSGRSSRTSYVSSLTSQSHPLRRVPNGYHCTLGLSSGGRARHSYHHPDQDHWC
T2 sequence (Q02410 whole entry): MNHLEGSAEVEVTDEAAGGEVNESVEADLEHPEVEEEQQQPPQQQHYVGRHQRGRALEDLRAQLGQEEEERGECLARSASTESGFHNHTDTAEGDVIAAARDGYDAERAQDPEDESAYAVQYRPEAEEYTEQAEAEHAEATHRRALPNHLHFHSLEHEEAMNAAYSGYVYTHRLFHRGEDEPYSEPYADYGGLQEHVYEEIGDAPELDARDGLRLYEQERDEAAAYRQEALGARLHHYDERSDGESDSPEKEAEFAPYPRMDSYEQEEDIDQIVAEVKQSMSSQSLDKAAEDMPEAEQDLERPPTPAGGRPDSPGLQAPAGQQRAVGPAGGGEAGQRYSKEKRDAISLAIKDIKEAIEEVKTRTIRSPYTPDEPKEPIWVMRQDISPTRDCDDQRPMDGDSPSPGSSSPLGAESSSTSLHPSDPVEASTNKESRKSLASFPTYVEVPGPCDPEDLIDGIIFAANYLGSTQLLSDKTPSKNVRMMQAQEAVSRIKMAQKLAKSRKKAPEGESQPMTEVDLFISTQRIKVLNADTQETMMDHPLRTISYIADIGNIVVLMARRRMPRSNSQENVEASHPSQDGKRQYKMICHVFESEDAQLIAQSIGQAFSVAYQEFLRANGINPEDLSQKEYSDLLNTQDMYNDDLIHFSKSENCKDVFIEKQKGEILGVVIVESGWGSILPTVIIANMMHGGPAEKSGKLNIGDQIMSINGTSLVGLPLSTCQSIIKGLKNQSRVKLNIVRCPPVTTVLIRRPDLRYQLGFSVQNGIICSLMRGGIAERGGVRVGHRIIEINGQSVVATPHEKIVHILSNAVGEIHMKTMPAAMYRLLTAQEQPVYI

[6] = target: T2, Voltage-gated N-type calcium channel alpha-1B subunit/Amyloid beta A4 precursor protein-binding family A member 1; assay: disruptors of Mint-PDZ/N-type channel peptide interaction – biochemical, HTRF, SAR follow-up (AID 2489); type: functional

AC50 [1]: inactive
Structure (SMILES): C[C@@H]1COc2c(N3CCN(C)CC3)c(F)cc3c(=O)c(C(=O)O)cn1c23 [DEXTROFLOXACINE]

AC50 [2]: 17.8 µM (active) | IC50 [3]: 9.39 µM (active)
Structure (SMILES): CN(C(=O)c1ccc(NC(=O)Cc2ccc(NC(=O)C3CCN(C(=O)C4CC4)CC3)cc2)cc1)C1CC1

IC50 [4]: 6.04 µM (active) | IC50 [5]: 5.49 µM (active) | IC50 [6]: > 56.8 µM (inactive)
Structure (SMILES): COc1ccc(CNC(=O)COC(=O)c2cc(-c3ccco3)nc3ccccc23)cc1OC
